Results taken from patent US12502433B2, “Phosphonate-drug conjugates” (Massachusetts Eye and Ear Infirmary, priority 2016, dated 2025).
Where two headings read alike, the source gives them in different places.

Key:
[1] = humans, cited from earlier work
[2] = format: in vivo
Method: Male albino guinea pigs (Hartley strain; Charles River Laboratories, Inc., Wilmington, MA), each weighing approximately 350 g, were used. Nembutal (12.5 mg/kg intraperitoneally), Fentanyl (0.1 mg/kg intramuscularly), and Droperidol (5 mg/kg intramuscularly) were given for anesthesia. Supplemental doses of 0.7 mg/kg Fentanyl and 3.0 mg/kg Droperidol alternating with 6.25 mg/kg Nembutal were administered as needed. Animals were euthanized using pentobarbital (Fatal-Plus) at 390 mg/kg. The Massachusetts Eye and Ear Infirmary Institutional Animal Care and Use Committee approved all procedures.
All animals were therefore analyzed after maximal bisphosphonate deposition. Systemic delivery animals were analyzed at 48 hrs to account for potential differences between IP (our system) and IV (human) delivery.
The inner ears were harvested and stripped of soft tissue. All subsequent steps were performed in covered vials to prevent 6-FAM-ZOL bleaching. Specimens were fixed in an excess volume of neutral buffered formalin (10%, Fisher Scientific, Pittsburgh PA) at room temperature for 24 hours. The neutral buffered formalin was changed and fixation continued for another 24 hours. To prepare for resin embedding, specimens were dehydrated in an ascending series of ethanol (Fisher Scientific, 24 hr at 70%, 1 hr at 70%, 1 hr at 85%, 0.5 hr at 95%, 0.5 hr at 100%) followed by a wash in xylene (Fisher Scientific) and a 15 minute immersion in xylene. Specimens were cleared of xylene by a 1 hour infiltration in methyl methacrylate (MMA, Acrylosin soft, Dorn and Hart, Villa Park, IL) under vacuum. The MMA solution was changed and samples were infiltrated for 24 hours under vacuum. The infiltration solution was changed and the process was repeated for another 24 hours. Specimens were embedded in a solution of MMA containing 0.25% w/v (2.5 g/L) of perkadox-16 (Dom and Hart) for several hours under vacuum. After several hours, specimens were sealed in 50 mL polypropylene tubes and maintained at room temperature in a heat sink until fully cured (approximately 5 days).
Sections were prepared for fluorescent imaging by orienting and grinding the sample surface to the level of the mid-modiolus. Surfaces were polished on a 12″ table mounted rotary wheel using water and a progressively finer series of silicon carbide abrasive papers ending with 2400 grit (Buehler, Lake Bluff, 11).
High-resolution images (1360 by 1024; 16 bit) were taken under FITC illumination (470/40 excitation, 4951p dicroic; 525/50 emission) using a Carl Zeiss Axiovert 200 Inverted Microscope. ImageJ (Rasband WS, ImageJ, United States National Institutes of Health, Bethesda, Maryland, USA, 1997-2014) was used to quantify the amount of fluorescence within the cochlear wall and modiolus at each half-turn, as shown in FIG. 1. Background fluorescence, defined as the average amount of fluorescence in an area of the resin block containing no sample, was subtracted from all measurements. Fluorescence remained stable over at least two weeks after grinding if samples were kept in the dark at room temperature. Some images were also collected using a Leica TCS-SP2 confocal microscope. Confocal images were collected over a depth of 500 μm to generate maximum fluorescence images.
Mixed model analysis of variance was used to analyze the effect of dose on fluorescent response in the cochlea.

[3] = Hearing measurements (ABR, DPOAE) after systemic 6-FAM-ZOL; format: in vivo, guinea pig
Method: ABRs were recorded via subdermal needle electrodes (vertex—ventrolateral to the pinna of the test ear with a ground at the base of the tail). The CAPs electrode was located near the round window niche. Sound level was incremented in 5 dB steps, from ˜10 dB below threshold to 90 dB sound pressure level (SPL). Threshold for ABRs and CAPs was defined as the lowest stimulus level at which a repeatable wave could be identified in the response waveform.
Distortion product otoacoustic emissions (DPOAEs) were recorded for primary tones (f1, f2) over the same f2 range of frequencies, with a frequency ratio of 1.2, and with the level of the f2 primary 10 dB less than f1 level. Primaries were incremented together in 5 dB steps from −10 dB below threshold to 80 dB SPL. Ear-canal sound pressure was amplified and digitally sampled, FFTs were computed and averaged, and the 2f1-f2 DPOAE and surrounding noise floor were extracted. Iso-response contours were interpolated from plots of response amplitude vs. sound level. Threshold is defined as the f1 level required to produce a DPOAE of −5 dB SPL.
Distortion product otoacoustic emissions (DPOAEs) and auditory brainstem responses (ABRs) were measured in the systemic and round window membrane (RWM) delivery experiments. […] Hearing was measured at 2.78, 4, 5.6, 8, 12, 16, 24, and 32 kHz. […]

[4] = Round window membrane (RWM) alginate bead delivery of 6-FAM-ZOL: cochlear fluorescence; format: in vivo, guinea pig
Method: All animals were therefore analyzed after maximal bisphosphonate deposition. […] Round window delivery animals were analyzed at 3 weeks to allow middle ear inflammation to subside prior to hearing analysis and to account for transit across the RWM.
The inner ears were harvested and stripped of soft tissue. All subsequent steps were performed in covered vials to prevent 6-FAM-ZOL bleaching. Specimens were fixed in an excess volume of neutral buffered formalin (10%, Fisher Scientific, Pittsburgh PA) at room temperature for 24 hours. The neutral buffered formalin was changed and fixation continued for another 24 hours. To prepare for resin embedding, specimens were dehydrated in an ascending series of ethanol (Fisher Scientific, 24 hr at 70%, 1 hr at 70%, 1 hr at 85%, 0.5 hr at 95%, 0.5 hr at 100%) followed by a wash in xylene (Fisher Scientific) and a 15 minute immersion in xylene. Specimens were cleared of xylene by a 1 hour infiltration in methyl methacrylate (MMA, Acrylosin soft, Dorn and Hart, Villa Park, IL) under vacuum. The MMA solution was changed and samples were infiltrated for 24 hours under vacuum. The infiltration solution was changed and the process was repeated for another 24 hours. […]
High-resolution images (1360 by 1024; 16 bit) were taken under FITC illumination (470/40 excitation, 4951p dicroic; 525/50 emission) using a Carl Zeiss Axiovert 200 Inverted Microscope. ImageJ (Rasband WS, ImageJ, United States National Institutes of Health, Bethesda, Maryland, USA, 1997-2014) was used to quantify the amount of fluorescence within the cochlear wall and modiolus at each half-turn, as shown in FIG. 1. Background fluorescence, defined as the average amount of fluorescence in an area of the resin block containing no sample, was subtracted from all measurements. Fluorescence remained stable over at least two weeks after grinding if samples were kept in the dark at room temperature. […] Confocal images were collected over a depth of 500 μm to generate maximum fluorescence images. […]

[5] = Hearing measurements (ABR, DPOAE) after RWM 6-FAM-ZOL; format: in vivo, guinea pig
Text: Acoustic stimuli were digitally generated and auditory responses were monitored using a National Instruments PXI stimulus generation/data acquisition system, which included a 24 bit digital I-O board (PXI-4461) and a 16 bit digital I-O board (PXI-6221) and the Eaton Peabody Laboratories Cochlear Function Test Suite. To elicit the auditory brainstem responses (ABRs) and the compound action potentials (CAPs), 5 ms tone pip stimuli were used with 0.5 ms rise/fall times (cosine squared) in alternating polarity at 33/s.
Acoustic stimuli were delivered via a custom acoustic assembly comprising two dynamic drivers as sound sources and a miniature electret microphone to measure sound pressure in situ (for a complete description, see e.g., http://www.masseyeandear.org/research/otolaryngology/investigators/laboratories/eaton-peabody-laboratories/ep1-engineering-resources). The response from the electrodes was amplified (10,000×), filtered (0.3-3 kHz bandpass), and averaged (512 samples at each frequency-level combination for ABRs and 128 samples for CAPs).
ABRs were recorded via subdermal needle electrodes (vertex—ventrolateral to the pinna of the test ear with a ground at the base of the tail). The CAPs electrode was located near the round window niche. […]
Distortion product otoacoustic emissions (DPOAEs) were recorded for primary tones (f1, f2) over the same f2 range of frequencies, with a frequency ratio of 1.2, and with the level of the f2 primary 10 dB less than f1 level. […]
Distortion product otoacoustic emissions (DPOAEs) and auditory brainstem responses (ABRs) were measured in the systemic and round window membrane (RWM) delivery experiments. […] Hearing was measured at 2.78, 4, 5.6, 8, 12, 16, 24, and 32 kHz.
The round window was visualized via a bullectomy approach and the beads were placed within the round window membrane (RWM) niche under direct microscopic visualization. […] DPOAEs and ABRs were first measured while animals were under anesthesia prior to bullectomy and again prior to analysis.

[6] = 6-FAM-ZOL infusion into the scala tympani via cochleostomy: cochlear fluorescence; format: in vivo, guinea pig
Method: All animals were therefore analyzed after maximal bisphosphonate deposition. […] Intracochlear delivery animals were analyzed at 3 hours as this timepoint allowed for high levels of delivery while avoiding the potential long-term effects of a cochleostomy.
The inner ears were harvested and stripped of soft tissue. All subsequent steps were performed in covered vials to prevent 6-FAM-ZOL bleaching. Specimens were fixed in an excess volume of neutral buffered formalin (10%, Fisher Scientific, Pittsburgh PA) at room temperature for 24 hours. The neutral buffered formalin was changed and fixation continued for another 24 hours. To prepare for resin embedding, specimens were dehydrated in an ascending series of ethanol (Fisher Scientific, 24 hr at 70%, 1 hr at 70%, 1 hr at 85%, 0.5 hr at 95%, 0.5 hr at 100%) followed by a wash in xylene (Fisher Scientific) and a 15 minute immersion in xylene. Specimens were cleared of xylene by a 1 hour infiltration in methyl methacrylate (MMA, Acrylosin soft, Dorn and Hart, Villa Park, IL) under vacuum. The MMA solution was changed and samples were infiltrated for 24 hours under vacuum. The infiltration solution was changed and the process was repeated for another 24 hours. Specimens were embedded in a solution of MMA containing 0.25% w/v (2.5 g/L) of perkadox-16 (Dom and Hart) for several hours under vacuum. […]
High-resolution images (1360 by 1024; 16 bit) were taken under FITC illumination (470/40 excitation, 4951p dicroic; 525/50 emission) using a Carl Zeiss Axiovert 200 Inverted Microscope. ImageJ (Rasband WS, ImageJ, United States National Institutes of Health, Bethesda, Maryland, USA, 1997-2014) was used to quantify the amount of fluorescence within the cochlear wall and modiolus at each half-turn, as shown in FIG. 1. Background fluorescence, defined as the average amount of fluorescence in an area of the resin block containing no sample, was subtracted from all measurements. […] Confocal images were collected over a depth of 500 μm to generate maximum fluorescence images. […]

[7] = Hearing measurements (CAP, DPOAE) after cochleostomy infusion; format: in vivo, guinea pig
Method: For the cochleostomy experiments, compound action potentials (CAPs) from the auditory nerve were substituted for ABRs.
A cochleostomy was performed approximately 0.5 mm distal to the round window via a bullectomy approach and the PTFE tubing was inserted into the scala tympani. Dental cement was used to seal the cochleostomy around the tubing. Infusion was performed at 1 μL over one minute, five times, spaced nine minutes apart. Control animals were treated with AP alone; 0.02× dosage animals were infused with 6-FAM-ZOL at 0.25 μg/μL; and 0.04× dosage animals were infused with 6-FAM-ZOL at 0.125 μg/μL+0.193 μg/μL zoledronate (total 4% of the 1× human zoledronate dose by molar weight). DPOAEs and CAPs were measured at time 0 (i.e., after cannula insertion and prior to infusion) and at 3 hrs. In independent experiments, three control animals were treated with AP alone, four animals were treated with AP containing 0.02× 6-FAM-ZOL, and three animals were treated with AP containing 0.04× 6-FAM-ZOL+zoledronate.

[8] = Human temporal bone model: 6-FAM-ZOL delivery through the oval window
Method: 6-FAM-ZOL was synthesized as described in Example 4 and was dissolved in artificial perilymph (AP) at a concentration of 10 μg/μL. The content of AP (pH 7.4) was 130 mM NaCl, 3.5 mM KCl, 1.5 mM CaCl2, 5.5 mM glucose, and 20 mM HEPES.
Six freshly harvested cadaveric human temporal bones, which were obtained within 24 hours after death by the human temporal bone histopathology lab at Massachusetts Eye and Ear Infirmary, were used. The Pathology Quality Assurance Committee at Massachusetts General Hospital approved procurement of the specimens. The squamous and mastoid portions were drilled away, leaving the labyrinth. In three temporal bones, 1 μL of 10 μg/μL 6-FAM-ZOL was injected through the OW using a micropipette after lifting the stapes footplate. The footplate was then carefully laid back down. […]
Images (1024 by 1024; 8 bit) were collected using a Leica TCS-SP2 confocal microscope to generate maximum fluorescence images. To identify the surface of each specimen, the point of maximum fluorescence in the z-axis was first identified. A stack of images was then collected to a depth of 500 μm from the point of maximum fluorescence. […] ImageJ was used to quantify the amount of fluorescence associated with the labeled bisphosphonate within the lateral cochlear wall and the modiolus of the scala vestibuli and scala tympani at each half-turn, as shown in FIG. 11. […]

spiral ganglion neurons = test: In vitro spiral ganglion neurite outgrowth; format: cell-based, CBA/CaJ pups; settings: 400 nM, 48 hours
Method: Cochleae were harvested from P3-4 CBA/CaJ pups, after which the spiral ganglion neurons were sharply dissected free in a clump of cells, divided into three roughly equal sections, and plated with fibronectin on Dulbecco's Modified Eagle's medium (DMEM). Individual sections were then treated with media alone, 400 nM DHF, 400 nM RIS, or 400 nM DHF-RIS (Example 1) for 48 hours. After fixing and immunostaining with TUJI, the neurites were visualized under confocal microscopy and the neurite length quantified using ImageJ.

ribbon synapses = test: Ribbon synapse regeneration in organ of Corti explants after kainic acid; format: cell-based; settings: 400 nM after two hours kainic acid
Method: To characterize the ability of DHF-RIS to regenerate ribbon synapses, a previously described organ of Corti explant system was used, wherein kainic acid was used to mimic excitotoxic damage to the ribbon synapse (see e.g., Wang et al, 7The Journal of Neuroscience: the official journal of the Society for Neuroscience, 2011, 31:7938-7949). Explants were treated with kainic acid for two hours to destroy synapses and then treated with 400 nM DHF, 400 nM RIS, or […] DHF-RIS (Example 1). Comparison was made with control samples not treated with kainic acid (KA−) and samples treated with kainic acid but no other drug (KA+). Synapses were detected by co-localization of CtBP2 and PSD95 as previously described and counted using the Amira program by an observer blinded to sample identity.

SG neurites = test: In vitro attraction of SG neurites after pre-binding to hydroxyapatite; format: cell-based
Method: This assay was performed to confirm that the DHF moiety within DHF-RIS (Example 1) remained available to attract neurites from a distance after binding to hydroxyapatite, a mineral substitute for bone. In a modification of the data shown in FIG. 14A, a separate set of experiments was performed in which RIS-DHF was pre-bound to hydroxyapatite pellets. The pellets were washed with media, and plated along with SGN explants. To visualize the hydroxyapatite pellets, a small amount of 6-FAM-ZOL (Example 4) was added to all samples. It was observed that neurites traveled up to […] before ending on and overlapping with hydroxyapatite pellets, as shown in FIG. 14C.

[9] = 1× systemic dose (0.185 mg/kg IP), 48 hrs
[10] = control, 1× and 3× systemic doses
[11] = systemic 1× and 3× doses, 48 hrs
[12] = three weeks after placement on the RWM
[13] = 0.02× cochleostomy infusion, 3 hrs, relative to control animals

Q: Which results are given for `O=P(O)(O)C(O)(Cn1ccnc1)P(=O)(O)O` [zoledronate]?
A: drug remaining in plasma ([1]; after 24 hours): less than 1%; plasma half-life ([1]; first of two half-lives): 12 min; plasma half-life ([1]; second of two half-lives): 84 min

Q: For `O=C(NCC(O)C[n+]1ccn(CC(O)(P(=O)(O)O)P(=O)(O)O)c1)c1ccc(C(=O)O)c(-c2c3ccc(=O)cc-3oc3cc(O)ccc23)c1` (stereo not drawn) [Example 6-FAM-ZOL], which “average fluorescence stronger in tibiae compared to cochleae” value ([2]; 1× systemic dose) is on record?
A: The value was 50%.

Q: And the “average fluorescence above control, cochleae” value [2, 9]?
A: Its value is “approximately 5,800 fluorescence units”.

Q: And the “average fluorescence above control, tibiae” value [2, 9]?
A: The value was ~8,800 fluorescence units.

Q: And the “fluorescence in lateral wall of cochleae” value [2, 10]?
A: The value was “increased with dose and the differences were statistically significant”.

Q: What about the fluorescence in tibiae [2, 10] of the same compound?
A: Its fluorescence in tibiae is “dose-dependent and statistically significant”.

Q: What about the ABR change [3, 11] of the same compound?
A: The ABR change was “No significant physiological changes”.

Q: And the DPOAE change [3, 11]?
A: Its DPOAE change is “No significant physiological changes”.

Q: And the ototoxicity ([3]; systemic treatment)?
A: Its ototoxicity is “non-ototoxic”.

Q: And the cochlear fluorescence ([4]; 0.1× dose on RWM, 3 weeks)?
A: Its cochlear fluorescence is “lower, but still detectable”.

Q: What about the “delivery throughout the lateral wall of the cochlea (fluorescence)” value ([4]; 0.3× dose in alginate bead on RWM, 3 weeks) of the same compound?
A: The value was “comparable to the 1× systemic dose”.

Q: What about the “levels of fluorescence in modiolus and lateral wall vs control” value ([4]; RWM delivery 0.1× and 0.3×) of the same compound?
A: The value was “significantly higher than the control”.

Q: What about the ototoxicity ([5]; local delivery onto the RWM) of the same compound?
A: The ototoxicity was “not ototoxic”.

Q: And the ABR shift [5, 12]?
A: The ABR shift was “no shifts”.

Q: And the DPOAE shift [5, 12]?
A: The DPOAE shift was “no shifts”.

Q: What about the “total average fluorescence of the lateral wall vs control” value ([6]; 0.2× dose (so in the source)) of the same compound?
A: Its value is “significantly greater”.

Q: What about the “total average fluorescence of the modiolus vs control” value ([6]; 0.2× treatment (so in the source)) of the same compound?
A: The value was “significantly greater”.

Q: What about the “fluorescent signal along osseous spiral lamina of the modiolus and lateral wall of the cochlea” value ([6]; 2% (0.02×) of the 1× systemic dose, 3 hours) of the same compound?
A: Its value is “bright fluorescent signal”.

Q: What about the “additional CAP shift” value [7, 13] of the same compound?
A: The value was 10-15 dB.

Q: What about the “additional DPOAE shift” value [7, 13] of the same compound?
A: Its value is 10-15 dB.

Q: What about the immediate ototoxicity ([7]; direct infusion into the cochlea) of the same compound?
A: Its immediate ototoxicity is “without significant immediate ototoxicity”.

Q: And the “fluorescent signal in bony walls of the vestibular capsule and the cochlea” value ([8]; 1 μL of 10 μg/μL through the oval window, 4 days)?
A: Its value is “strong fluorescent signal”.

Q: And the “effect of dose (6-FAM-ZOL vs artificial perilymph) on fluorescence, lateral wall and modiolus, scala vestibuli and scala tympani” value ([8]; all p<0.05)?
A: Its value is “significant effect of dose”.

Q: With `O=C(CCOCCOCCOCCOCCNC(=O)c1ccc(-c2cc(=O)c3ccc(O)c(O)c3o2)cc1)NCC(O)C[n+]1cccc(CC(O)(P(=O)(O)O)P(=O)(O)O)c1` (stereo not drawn) [DHF-RIS] as the compound, how does the “neurite outgrowth (neurite length)” value (spiral ganglion neurons) read?
A: The value was “significant outgrowth”.

Q: What about the “regeneration of ribbon synapses” value (ribbon synapses) of the same compound?
A: Its value is “significant regeneration compared to non-rescued explants, although less than native DHF”.

Q: And the “distance neurites traveled before ending on hydroxyapatite pellets” value (SG neurites; conjugate pre-bound to hydroxyapatite pellets)?
A: The value was “up to 400 μM”.

Q: And the “attraction of SG neurites after pre-binding to hydroxyapatite” value (SG neurites; in vitro)?
A: The value was “available to attract SG neurites”.

Q: Which “regeneration of ribbon synapses” value (ribbon synapses) does the source give for `O=P(O)(O)C(O)(Cc1cccnc1)P(=O)(O)O` [RIS, reference compound] here?
A: Its value is “some ability to regenerate synapses”.
